Values of other authors in patent US10466148B2, “Use of platinum wire electrode and synthetic fiber for flow assisted electro-enhanced solid phase microextraction” (KING FAHD UNIVERSITY OF PETROLEUM AND MINERALS, priority 2015, dated 2019).

Key:
[1] = not given; remark: listed apart in the source
[2] = not given; remark: listed apart in the source
[3] = not given; remark: listed apart in the source

SMILES	Diffusion coefficient in air [cm^2 s^−1]	Henry's law constant at 20° C. [1]	Vapor pressure at 20-25° C. [2] [mmHg]	Diffusion coefficient in water [3] [cm^2 s^−1]
Brc1ccc(Oc2ccccc2)cc1 [BPPE, 4-bromophenyl phenyl ether]	0.047	0.009	0.0005	6.27E−06
Clc1ccc(Oc2ccccc2)cc1 [CPPE, 4-chlorophenyl phenyl ether]	0.048	0.012	0.0016	6.18E−06
